Blank lines part the entries; values can stand above or below the compound they belong to.
Test system: 931267-113-T-J1-PDC multicell spheroid viability
Test: Anticancer human tumor 931267-113-T-J1-PDC patient-derived colon adenocarcinoma cell line growth inhibition [PI3K]
Conditions: for viability, T/C: stronger effect = lower value
Description: Combinatorial screen of targeted agents with the PI3K inhibitors inavolisib, alpelisib, duvelisib, and copanlisib in multi-cell type tumor spheroids
A high-throughput screen of multi-cell type tumor spheroids was designed to identify active combinations of targeted small molecules and PI3K pathway inhibitors. Complex spheroids include a stromal component modeled by human endothelial cells (HUVEC) and fibroblasts modeled by human mesenchymal stem cells (MSCs). The concentration ranges selected for each drug and investigational agent were based upon clinically achievable concentrations if the clinical Cmax of the agent was known.
Compounds. The drugs and investigational agents: inavolisib (NSC800729), alpelisib (NSC765974), duvelisib (NSC772469), copanlisib (NSC816437), ipatasertib (NSC767898), afuresertib (NSC778305), talazoparib (NSC767125), sapanisertib (NSC764658), selumetinib (NSC741078), tovorafenib (DAY101, NSC766906), vemurafenib (NSC761431), ravoxertinib (NSC781343), sotorasib (NSC818433), MRTX1133 (NSC 836407), abemaciclib (NSC 768073), palbociclib (NSC758247), venetoclax (NSC 766270), SY5609 (NSC837396), enzalutamide (NSC755605), and darolutamide (NSC825331), were obtained from the National Cancer Institute (NCI) Developmental Therapeutics Program Chemical Repository. The FDA-approved anticancer drug set is available from the NCI Developmental Therapeutics Program. […] The stock solutions were prepared in dimethyl sulfoxide (DMSO, Sigma-Aldrich, St. Louis, MO, cat. D2650) at 800-fold the tested concentration and stored at -70 degrees C prior to their use. All drugs and investigational agents were tested over a range starting from a high concentration at or near the clinical Cmax and decreasing in half-log increments. If the clinical Cmax for an agent had not been determined, the highest concentration tested was 10 microM.
Cell Culture. All cells were maintained in an incubator at 37 degrees C and 5% CO2 with 95% humidity. The PDC lines were cultured according to standard operating procedures established by the NCI PDMR (https://pdmr.cancer.gov/sops/default.htm). All PDCs were thawed and cultured in Matrigel-coated flasks prepared with a working solution of 1X Ham's F-12 nutrient mix, without supplementation (Invitrogen, Waltham, MA, cat. 11765054), 100 U/mL penicillin-streptomycin (Invitrogen, cat. 15140122), and 2.5% Matrigel (Corning Inc., Corning, NY, cat. 354248) for the first three passages. The 354836-022-R-J1-PDC, 475296-252-R-J1-PDC, and 997726-040-R-J2-PDC lines were cultured in 6A media, which includes advanced DMEM/F-12 (Thermo Fisher Scientific, cat. 12634028), 10 mM HEPES (Thermo Fisher Scientific, cat. 15630080), 1X GlutaMAX supplement (Thermo Fisher Scientific, cat. 35050061), 0.1 mg/mL primocin (InvivoGen, San Diego, CA, cat. ant-pm-2), 10% defined fetal bovine serum, heat inactivated (HyClone Laboratories Inc., Logan, UT, cat. SH30070.03HI), 50% L-WRN conditioned media (ATCC, cat. CRL-3276), 1.25 mM N-Acetyl-L-cysteine (Sigma-Aldrich, cat. A9165), 10 mM nicotinamide (Sigma-Aldrich, cat. N0636), 1X B-27 supplement (Thermo Fisher Scientific, cat. 17504044), 1X N-2 supplement (Thermo Fisher Scientific, cat. 17502048), and 10 microM Y-27632 dihydrochloride (Tocris Bioscience, Bristol, United Kingdom, cat. 1254). The 624824-186-R-J2-PDC line was cultured in 6C/Colon 1B media, which includes all 6A media components plus 50 ng/mL human EGF recombinant protein (Thermo Fisher Scientific, cat. PHG0311). […]

[1] = curve of first compound, second compound 0.0316 µM
[2] = curve of first compound, second compound 0.1 µM
[3] = curve of first compound, second compound 0.316 µM
[4] = curve of first compound, second compound 1 µM
[5] = curve of first compound, second compound 3.16 µM
[6] = curve of first compound, second compound 10 µM
[7] = second compound 0.0316 µM, first compound 0.0316 µM
[8] = second compound 0.0316 µM, first compound 0.1 µM
[9] = second compound 0.0316 µM, first compound 0.316 µM
[10] = second compound 0.0316 µM, first compound 1 µM
[11] = second compound 0.0316 µM, first compound 3.16 µM
[12] = second compound 0.0316 µM, first compound 10 µM
[13] = second compound 0.1 µM, first compound 0.0316 µM
[14] = second compound 0.1 µM, first compound 0.1 µM
[15] = second compound 0.1 µM, first compound 0.316 µM
[16] = second compound 0.1 µM, first compound 1 µM
[17] = second compound 0.1 µM, first compound 3.16 µM
[18] = second compound 0.1 µM, first compound 10 µM
[19] = second compound 0.316 µM, first compound 0.0316 µM
[20] = second compound 0.316 µM, first compound 0.1 µM
[21] = second compound 0.316 µM, first compound 0.316 µM
[22] = second compound 0.316 µM, first compound 1 µM
[23] = second compound 0.316 µM, first compound 3.16 µM
[24] = second compound 0.316 µM, first compound 10 µM
[25] = second compound 1 µM, first compound 0.0316 µM
[26] = second compound 1 µM, first compound 0.1 µM
[27] = second compound 1 µM, first compound 0.316 µM
[28] = second compound 1 µM, first compound 1 µM
[29] = second compound 1 µM, first compound 3.16 µM
[30] = second compound 1 µM, first compound 10 µM
[31] = second compound 3.16 µM, first compound 0.0316 µM
[32] = second compound 3.16 µM, first compound 0.1 µM
[33] = second compound 3.16 µM, first compound 0.316 µM
[34] = second compound 3.16 µM, first compound 1 µM
[35] = second compound 3.16 µM, first compound 3.16 µM
[36] = second compound 3.16 µM, first compound 10 µM
[37] = second compound 10 µM, first compound 0.0316 µM
[38] = second compound 10 µM, first compound 0.1 µM
[39] = second compound 10 µM, first compound 0.316 µM
[40] = second compound 10 µM, first compound 1 µM
[41] = second compound 10 µM, first compound 3.16 µM
[42] = second compound 10 µM, first compound 10 µM
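Note: viability read 7 days after compound addition.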

- IC50 (compound alone, run of 05/08/2023): > 10 µM
Compound: Cc1nc(NC(=O)N2CCCC2C(N)=O)sc1-c1ccnc(C(C)(C)C(F)(F)F)c1 (stereo not drawn)
- viability, T/C (compound 0.0316 µM): 99.6% [middle of 7 runs]
- viability, T/C (compound 0.1 µM): 94.8% [middle of 7 runs]
- viability, T/C (compound 0.316 µM): 84.8% [middle of 7 runs]
- viability, T/C (compound 1 µM): 80.8% [middle of 7 runs]
- viability, T/C (compound 3.16 µM): 74.6% [middle of 7 runs]
- viability, T/C (compound 10 µM): 63.1% [middle of 7 runs]

- IC50 [1]: 7.95 µM
- IC50 [2]: 7.53 µM
- IC50 [3]: 7.72 µM
- IC50 [4]: 6.96 µM
- IC50 [5]: 5.22 µM
- IC50 [6]: 3.03 µM
Compound: Cn1nccc1Nc1nccc(-c2ccn(C(CO)c3ccc(Cl)c(F)c3)c(=O)c2)n1 (stereo not drawn) + CC(Nc1ncnc2nc[nH]c12)c1cc2cccc(Cl)c2c(=O)n1-c1ccccc1
- viability, T/C [7]: 105%
- viability, T/C [8]: 103%
- viability, T/C [9]: 98.9%
- viability, T/C [10]: 90.6%
- viability, T/C [11]: 65.7%
- viability, T/C [12]: 46.1%
- viability, T/C [13]: 111%
- viability, T/C [14]: 109%
- viability, T/C [15]: 92.7%
- viability, T/C [16]: 87.5%
- viability, T/C [17]: 64.6%
- viability, T/C [18]: 45%
- viability, T/C [19]: 107%
- viability, T/C [20]: 113%
- viability, T/C [21]: 100%
- viability, T/C [22]: 78.1%
- viability, T/C [23]: 76.4%
- viability, T/C [24]: 42.7%
- viability, T/C [25]: 114%
- viability, T/C [26]: 109%
- viability, T/C [27]: 92.6%
- viability, T/C [28]: 86.2%
- viability, T/C [29]: 70.3%
- viability, T/C [30]: 40.4%
- viability, T/C [31]: 109%
- viability, T/C [32]: 94.3%
- viability, T/C [33]: 87.5%
- viability, T/C [34]: 78%
- viability, T/C [35]: 63.3%
- viability, T/C [36]: 35.1%
- viability, T/C [37]: 88.2%
- viability, T/C [38]: 86.3%
- viability, T/C [39]: 79.6%
- viability, T/C [40]: 77.4%
- viability, T/C [41]: 48.4%
- viability, T/C [42]: 27.4%

- IC50 [1]: > 10 µM
- IC50 [2]: > 10 µM
- IC50 [3]: > 10 µM
- IC50 [4]: > 10 µM
- IC50 [5]: > 10 µM
- IC50 [6]: > 10 µM
Compound: CNC(=O)c1ccc(N2C(=S)N(c3ccc(C#N)c(C(F)(F)F)c3)C(=O)C2(C)C)cc1F + CC(Nc1ncnc2nc[nH]c12)c1cc2cccc(Cl)c2c(=O)n1-c1ccccc1
- viability, T/C [7]: 107%
- viability, T/C [8]: 96.7%
- viability, T/C [9]: 113%
- viability, T/C [10]: 97.2%
- viability, T/C [11]: 111%
- viability, T/C [12]: 109%
- viability, T/C [13]: 108%
- viability, T/C [14]: 101%
- viability, T/C [15]: 104%
- viability, T/C [16]: 104%
- viability, T/C [17]: 101%
- viability, T/C [18]: 103%
- viability, T/C [19]: 103%
- viability, T/C [20]: 104%
- viability, T/C [21]: 100%
- viability, T/C [22]: 107%
- viability, T/C [23]: 115%
- viability, T/C [24]: 103%
- viability, T/C [25]: 102%
- viability, T/C [26]: 103%
- viability, T/C [27]: 96.6%
- viability, T/C [28]: 102%
- viability, T/C [29]: 117%
- viability, T/C [30]: 109%
- viability, T/C [31]: 100%
- viability, T/C [32]: 98.9%
- viability, T/C [33]: 92.4%
- viability, T/C [34]: 103%
- viability, T/C [35]: 96.5%
- viability, T/C [36]: 104%
- viability, T/C [37]: 99%
- viability, T/C [38]: 97.9%
- viability, T/C [39]: 93.9%
- viability, T/C [40]: 96.1%
- viability, T/C [41]: 102%
- viability, T/C [42]: 84.4%

- IC50 [1]: > 10 µM
- IC50 [2]: > 10 µM
- IC50 [3]: > 10 µM
- IC50 [4]: > 10 µM
- IC50 [5]: > 10 µM
- IC50 [6]: > 10 µM
Compound: CC(Cn1ccc(-c2ccc(C#N)c(Cl)c2)n1)NC(=O)c1cc(C(C)O)[nH]n1 (stereo not drawn) + CC(Nc1ncnc2nc[nH]c12)c1cc2cccc(Cl)c2c(=O)n1-c1ccccc1
- viability, T/C [7]: 104%
- viability, T/C [8]: 110%
- viability, T/C [9]: 106%
- viability, T/C [10]: 105%
- viability, T/C [11]: 116%
- viability, T/C [12]: 96.7%
- viability, T/C [13]: 114%
- viability, T/C [14]: 101%
- viability, T/C [15]: 102%
- viability, T/C [16]: 108%
- viability, T/C [17]: 102%
- viability, T/C [18]: 103%
- viability, T/C [19]: 111%
- viability, T/C [20]: 107%
- viability, T/C [21]: 104%
- viability, T/C [22]: 107%
- viability, T/C [23]: 105%
- viability, T/C [24]: 101%
- viability, T/C [25]: 113%
- viability, T/C [26]: 110%
- viability, T/C [27]: 102%
- viability, T/C [28]: 118%
- viability, T/C [29]: 107%
- viability, T/C [30]: 102%
- viability, T/C [31]: 103%
- viability, T/C [32]: 98.5%
- viability, T/C [33]: 87%
- viability, T/C [34]: 99.6%
- viability, T/C [35]: 101%
- viability, T/C [36]: 94.7%
- viability, T/C [37]: 88%
- viability, T/C [38]: 94.8%
- viability, T/C [39]: 99.4%
- viability, T/C [40]: 95.8%
- viability, T/C [41]: 92.5%
- viability, T/C [42]: 87.8%

From PubChem BioAssay AID1963970 (Molecular Pharmacology Branch, DTP, NCI, 2024)
